The results in this text go back to US10858339B2, “Aryl cyclopropyl-amino-isoquinolinyl amide compounds” (priority 2017, dated 2020).

Where two headings read alike, the source gives them in different places.

One assay deals with ROCK2 (Homo sapiens, UniProt O75116). Nature of the assay: biochemical.
For the next assay, the target named is ROCK1 (Homo sapiens, UniProt Q13464). Nature of the assay: ROCK kinase inhibition assay, ROCK1 enzyme.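 Note: kinase reaction with 0.5 µM final ATP, 75 min at room temperature, remaining ATP read by luminescence, percent of DMSO-only control minus background.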 Type of assay: biochemical.
ROCK1, sequence (Q13464 whole entry, species assumed): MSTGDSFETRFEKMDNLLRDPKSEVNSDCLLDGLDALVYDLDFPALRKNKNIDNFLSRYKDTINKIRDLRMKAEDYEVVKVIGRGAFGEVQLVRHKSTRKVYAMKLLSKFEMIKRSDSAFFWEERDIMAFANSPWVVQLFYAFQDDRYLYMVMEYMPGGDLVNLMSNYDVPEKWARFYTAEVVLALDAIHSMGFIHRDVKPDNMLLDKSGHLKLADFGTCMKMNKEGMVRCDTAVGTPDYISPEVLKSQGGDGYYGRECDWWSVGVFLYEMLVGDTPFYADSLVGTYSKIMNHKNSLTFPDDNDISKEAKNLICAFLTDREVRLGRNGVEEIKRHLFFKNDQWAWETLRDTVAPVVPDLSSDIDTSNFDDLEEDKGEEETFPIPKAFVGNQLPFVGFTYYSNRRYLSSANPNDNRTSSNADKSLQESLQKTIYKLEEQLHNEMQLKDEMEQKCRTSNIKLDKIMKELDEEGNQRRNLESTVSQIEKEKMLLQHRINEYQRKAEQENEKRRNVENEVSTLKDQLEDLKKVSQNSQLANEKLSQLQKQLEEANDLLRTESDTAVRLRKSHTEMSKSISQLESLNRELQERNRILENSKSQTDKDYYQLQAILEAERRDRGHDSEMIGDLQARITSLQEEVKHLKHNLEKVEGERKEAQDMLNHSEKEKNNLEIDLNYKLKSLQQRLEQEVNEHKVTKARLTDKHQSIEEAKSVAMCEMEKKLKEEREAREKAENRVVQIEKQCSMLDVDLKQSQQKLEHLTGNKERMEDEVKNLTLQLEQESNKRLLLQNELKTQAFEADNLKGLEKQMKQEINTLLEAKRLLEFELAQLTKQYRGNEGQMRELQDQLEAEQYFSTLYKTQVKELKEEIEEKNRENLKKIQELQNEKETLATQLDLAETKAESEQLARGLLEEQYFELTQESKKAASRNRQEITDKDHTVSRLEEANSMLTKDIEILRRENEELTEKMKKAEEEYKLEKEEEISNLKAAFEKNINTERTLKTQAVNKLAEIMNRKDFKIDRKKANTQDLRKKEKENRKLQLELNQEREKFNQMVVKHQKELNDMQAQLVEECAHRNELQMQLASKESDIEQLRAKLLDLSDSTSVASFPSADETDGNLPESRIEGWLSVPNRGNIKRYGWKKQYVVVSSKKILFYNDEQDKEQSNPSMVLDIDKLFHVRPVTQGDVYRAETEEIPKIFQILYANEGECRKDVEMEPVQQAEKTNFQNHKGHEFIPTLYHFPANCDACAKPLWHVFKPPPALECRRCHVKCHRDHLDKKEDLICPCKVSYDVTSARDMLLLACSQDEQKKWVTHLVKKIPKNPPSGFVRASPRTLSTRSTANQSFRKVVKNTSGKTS
In another assay the target is T1, JAK3 (Homo sapiens, UniProt P52333).
T1 sequence (P52333 1-1124): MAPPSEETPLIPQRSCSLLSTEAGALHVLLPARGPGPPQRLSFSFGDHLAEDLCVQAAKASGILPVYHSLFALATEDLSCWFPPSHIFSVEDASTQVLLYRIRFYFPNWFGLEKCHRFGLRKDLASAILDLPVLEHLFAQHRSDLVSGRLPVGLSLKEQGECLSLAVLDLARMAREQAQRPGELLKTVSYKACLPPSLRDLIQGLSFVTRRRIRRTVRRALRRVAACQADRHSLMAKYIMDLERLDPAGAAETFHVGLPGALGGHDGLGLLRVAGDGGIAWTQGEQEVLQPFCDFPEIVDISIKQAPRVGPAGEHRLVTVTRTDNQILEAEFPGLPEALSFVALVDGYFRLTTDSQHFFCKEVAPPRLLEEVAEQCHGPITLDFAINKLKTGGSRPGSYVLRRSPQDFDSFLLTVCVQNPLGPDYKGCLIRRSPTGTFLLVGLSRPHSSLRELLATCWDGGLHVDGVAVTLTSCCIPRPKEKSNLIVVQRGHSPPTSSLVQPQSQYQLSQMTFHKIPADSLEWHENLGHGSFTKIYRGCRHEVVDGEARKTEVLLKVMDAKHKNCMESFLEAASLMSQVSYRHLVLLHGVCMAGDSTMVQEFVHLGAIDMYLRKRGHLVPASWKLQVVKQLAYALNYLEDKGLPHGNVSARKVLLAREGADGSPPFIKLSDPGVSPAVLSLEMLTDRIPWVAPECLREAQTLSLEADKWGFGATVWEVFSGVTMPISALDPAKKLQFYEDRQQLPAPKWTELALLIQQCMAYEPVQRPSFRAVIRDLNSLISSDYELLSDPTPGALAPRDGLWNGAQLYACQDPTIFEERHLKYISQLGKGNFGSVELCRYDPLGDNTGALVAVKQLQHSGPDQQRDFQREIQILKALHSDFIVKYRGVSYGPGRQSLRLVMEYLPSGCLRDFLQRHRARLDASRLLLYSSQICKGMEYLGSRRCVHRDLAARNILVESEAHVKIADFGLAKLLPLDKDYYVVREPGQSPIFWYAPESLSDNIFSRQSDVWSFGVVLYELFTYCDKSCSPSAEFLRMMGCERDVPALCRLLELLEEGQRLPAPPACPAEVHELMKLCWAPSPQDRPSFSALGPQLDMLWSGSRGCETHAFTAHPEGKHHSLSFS
Nature of the assay: JAK kinase assay, JAK3 enzyme. Type of assay: biochemical. To be noted: read-out: JAK3.

The target in a further assay is T2, IKKb (Homo sapiens, UniProt O14920).
T2 sequence (O14920 1-756): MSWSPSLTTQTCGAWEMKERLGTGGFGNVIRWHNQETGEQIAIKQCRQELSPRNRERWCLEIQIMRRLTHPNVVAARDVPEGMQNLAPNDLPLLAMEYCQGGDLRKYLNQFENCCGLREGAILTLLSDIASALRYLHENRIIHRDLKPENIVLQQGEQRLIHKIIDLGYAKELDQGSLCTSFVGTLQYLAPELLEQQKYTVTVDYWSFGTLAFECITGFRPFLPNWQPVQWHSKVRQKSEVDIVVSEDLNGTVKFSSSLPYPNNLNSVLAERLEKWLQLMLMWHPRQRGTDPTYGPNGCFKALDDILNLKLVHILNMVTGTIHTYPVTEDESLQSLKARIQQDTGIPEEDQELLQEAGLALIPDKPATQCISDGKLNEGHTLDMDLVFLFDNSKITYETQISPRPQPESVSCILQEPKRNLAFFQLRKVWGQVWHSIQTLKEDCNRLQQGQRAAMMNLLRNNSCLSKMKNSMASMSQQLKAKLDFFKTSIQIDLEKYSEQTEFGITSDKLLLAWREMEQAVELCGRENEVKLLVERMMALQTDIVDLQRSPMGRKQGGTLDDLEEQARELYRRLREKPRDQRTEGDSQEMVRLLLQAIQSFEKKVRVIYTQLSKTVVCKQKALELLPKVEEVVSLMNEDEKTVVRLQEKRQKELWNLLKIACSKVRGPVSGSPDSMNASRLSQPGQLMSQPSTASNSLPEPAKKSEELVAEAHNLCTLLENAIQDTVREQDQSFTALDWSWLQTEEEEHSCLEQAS
Nature of the assay: IKKb kinase activity. Type of assay: biochemical. The settings on record: Table 17.

Assay [1] relates to Porcine Trabecular Meshwork cells (PTM). The experiment in a line: PTM-HTM assay, actin fiber length in PTM cells. Type of assay: cell-based. To be noted: Sus scrofa, read-out: PTM. As for the experimental part:
Porcine Trabecular Meshwork cells (PTM) were isolated from freshly obtained enucleated porcine eyes. Immortalized Human Trabecular Meshwork cells (TM-1) were obtained through a kind gift from Donna Peters in the Department of Ophthalmology and Visual Sciences at the University of Wisconsin. Cells were plated onto fibronectin coated glass-bottom 96-well plates and allowed to attach overnight. Media was removed and replaced with test compound in media with 1% fetal bovine serum and incubated for various times. After incubation, cells were formaldehyde fixed, triton solubilized, and stained. PTM cells were stained with Alexa Fluor®488 phalloidin (F-actin) and Hoechst 33342 (nuclei). TM-1 cells were stained with anti-paxillin followed by Alexa Fluor®488 goat-anti-mouse IgG (focal adhesions) and Hoechst 33342 (nuclei). All staining reagents were obtained through Invitrogen. Images were collected on an INCell 2200 imager with a 20× objective. The actin fiber length and total area of focal adhesions were analyzed using custom algorithms developed in the INCell Developer Toolbox, v1.9.3. Data collected were converted to percent of control (untreated cells). Curves were fit to data in GraphPad Prizm using sigmoidal dose-response and constraining top and bottom to 100% and 0%, respectively.

A further assay concerns the target JAK2 (Homo sapiens, UniProt O60674). Nature of the assay: JAK kinase assay, JAK2 enzyme.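 Note: JAK2 kinase reaction run 75 min at room temperature, leftover ATP read by Kinase-Glo luminescence, 11-point dilution series in 2.5% DMSO, percent of inhibitor-free DMSO control.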 The settings on record: read-out: JAK2. Type of assay: biochemical.
Assay [2] in a line: Rabbit IOP after intracameral injection. To be noted: intracameral injection of a formulation, FIG. 1. Type of assay: in vivo. From the text: Examples of such assays are described in the following reference, incorporated herein by reference: C. Liljebris, G. Selen, B. Resul, J. Sternschantz, and U. Hacksell, “Derivatives of 17-phenyl-18,19,20-trinorprostaglandin F2α Isopropyl Ester: Potential Anti-glaucoma Agents”, Journal of Medicinal Chemistry 1995, 38 (2): 289-304.

[3] abbreviates: Table 17, porcine trabecular meshwork cells.

JAK2, sequence (O60674 whole entry, species assumed): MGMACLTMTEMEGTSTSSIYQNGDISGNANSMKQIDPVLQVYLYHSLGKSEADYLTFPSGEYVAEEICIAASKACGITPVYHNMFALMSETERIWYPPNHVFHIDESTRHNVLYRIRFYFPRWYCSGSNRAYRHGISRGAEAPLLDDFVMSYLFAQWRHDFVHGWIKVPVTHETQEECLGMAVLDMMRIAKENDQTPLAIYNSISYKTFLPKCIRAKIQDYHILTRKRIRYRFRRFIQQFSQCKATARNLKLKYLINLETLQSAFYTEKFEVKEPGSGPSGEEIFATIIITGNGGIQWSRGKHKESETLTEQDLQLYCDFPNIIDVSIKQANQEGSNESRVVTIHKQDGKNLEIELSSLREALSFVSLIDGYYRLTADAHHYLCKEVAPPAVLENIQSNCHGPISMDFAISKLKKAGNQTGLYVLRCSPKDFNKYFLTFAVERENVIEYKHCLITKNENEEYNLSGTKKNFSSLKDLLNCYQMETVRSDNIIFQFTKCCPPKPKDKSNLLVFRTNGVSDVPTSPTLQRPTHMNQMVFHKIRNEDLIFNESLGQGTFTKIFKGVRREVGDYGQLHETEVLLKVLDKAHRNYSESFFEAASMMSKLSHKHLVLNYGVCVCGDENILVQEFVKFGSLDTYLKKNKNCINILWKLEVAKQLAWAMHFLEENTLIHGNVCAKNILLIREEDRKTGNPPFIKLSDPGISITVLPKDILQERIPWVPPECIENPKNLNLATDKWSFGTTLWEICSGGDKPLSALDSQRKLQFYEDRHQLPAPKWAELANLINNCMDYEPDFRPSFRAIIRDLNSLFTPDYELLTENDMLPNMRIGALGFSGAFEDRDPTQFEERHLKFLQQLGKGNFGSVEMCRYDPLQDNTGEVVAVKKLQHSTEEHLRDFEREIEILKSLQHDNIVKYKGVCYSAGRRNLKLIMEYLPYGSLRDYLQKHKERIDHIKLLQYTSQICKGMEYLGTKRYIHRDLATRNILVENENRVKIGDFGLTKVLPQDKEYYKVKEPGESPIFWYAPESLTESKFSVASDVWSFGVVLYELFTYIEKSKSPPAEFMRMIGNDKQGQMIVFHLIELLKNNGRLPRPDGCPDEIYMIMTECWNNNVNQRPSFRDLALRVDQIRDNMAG
ROCK2, sequence (O75116 whole entry, species assumed): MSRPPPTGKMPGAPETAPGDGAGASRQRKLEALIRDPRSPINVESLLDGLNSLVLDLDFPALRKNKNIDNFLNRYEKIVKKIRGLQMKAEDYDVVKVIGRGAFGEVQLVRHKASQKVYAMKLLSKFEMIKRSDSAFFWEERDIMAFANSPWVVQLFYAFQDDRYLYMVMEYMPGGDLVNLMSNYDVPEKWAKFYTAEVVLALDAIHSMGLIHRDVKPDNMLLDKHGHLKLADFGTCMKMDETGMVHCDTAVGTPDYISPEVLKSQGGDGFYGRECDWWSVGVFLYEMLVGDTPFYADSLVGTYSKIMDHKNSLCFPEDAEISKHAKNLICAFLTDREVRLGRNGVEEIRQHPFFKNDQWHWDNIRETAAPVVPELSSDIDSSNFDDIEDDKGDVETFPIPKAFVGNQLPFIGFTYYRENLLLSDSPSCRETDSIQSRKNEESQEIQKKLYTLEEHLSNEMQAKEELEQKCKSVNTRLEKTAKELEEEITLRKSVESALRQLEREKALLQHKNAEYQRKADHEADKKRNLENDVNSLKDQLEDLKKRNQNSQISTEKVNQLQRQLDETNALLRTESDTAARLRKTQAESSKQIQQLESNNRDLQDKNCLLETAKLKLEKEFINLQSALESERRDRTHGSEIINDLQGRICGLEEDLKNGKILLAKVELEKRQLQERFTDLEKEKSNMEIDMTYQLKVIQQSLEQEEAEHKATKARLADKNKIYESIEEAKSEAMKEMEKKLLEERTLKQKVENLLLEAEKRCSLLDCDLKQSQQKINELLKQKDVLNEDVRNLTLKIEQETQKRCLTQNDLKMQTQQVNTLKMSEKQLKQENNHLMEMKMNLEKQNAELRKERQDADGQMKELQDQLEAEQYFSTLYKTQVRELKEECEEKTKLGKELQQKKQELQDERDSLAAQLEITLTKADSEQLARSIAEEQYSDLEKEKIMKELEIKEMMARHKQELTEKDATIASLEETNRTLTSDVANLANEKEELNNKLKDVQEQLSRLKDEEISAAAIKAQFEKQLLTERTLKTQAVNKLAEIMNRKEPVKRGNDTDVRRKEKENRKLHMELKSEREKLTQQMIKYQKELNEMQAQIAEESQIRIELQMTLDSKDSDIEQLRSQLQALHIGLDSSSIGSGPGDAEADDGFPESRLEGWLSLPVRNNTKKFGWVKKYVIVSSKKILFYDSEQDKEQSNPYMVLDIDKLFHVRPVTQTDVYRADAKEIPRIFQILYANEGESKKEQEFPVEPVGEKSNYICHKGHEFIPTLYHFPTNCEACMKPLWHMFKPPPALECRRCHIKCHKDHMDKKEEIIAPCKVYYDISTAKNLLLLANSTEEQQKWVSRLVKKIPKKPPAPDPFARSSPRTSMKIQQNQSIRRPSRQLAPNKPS

Turning to `O=C(Nc1ccc2cnccc2c1F)[C@@H]1CC1c1ccc(S(=O)(=O)Nc2ccccn2)cc1` (mixture of isomers) [N-(5-fluoroisoquinolin-6-yl)-2-(4-(N-(pyridin-2-yl)sulfamoyl)phenyl)cyclopropane-1-carboxamide], the Ki on ROCK2 (ROCK2, Table 17) worked out at 4.9 nM; at ROCK1 (ROCK1, Table 17), 10.3 nM; at JAK3 (Table 17), 130 nM; at IKKb it was 144 nM. Moreover, the IC50 in assay [1] (setting [3]) came to 290 nM.

As to `O=C(Nc1ccc2cncc(Cl)c2c1)C1CC1c1ccc(S(=O)(=O)Nc2ccccn2)cc1` (racemic) [rel-N-(4-chloroisoquinolin-6-yl)-2-(4-(N-(pyridin-2-yl)sulfamoyl)phenyl)cyclopropane-1-carboxamide], at IKKb, the Ki was 9 nM. In addition, in assay [1] (setting [3]), the IC50 came to 227 nM.

`O=C(Nc1ccc2cnccc2c1)[C@@H]1C[C@H]1c1ccc(S(=O)(=O)Nc2ccccn2)cc1` [(1R,2R)-N-(isoquinolin-6-yl)-2-(4-(N-(pyridin-2-yl)sulfamoyl)phenyl) cyclopropane-1-carboxamide]: the Ki at JAK3 (Table 17) was 4.3 nM. Besides, the IC50 in assay [1] is 61 nM.

For `O=C(Nc1ccc2cnccc2c1)[C@@H]1C[C@H]1c1ccc(F)c(S(=O)(=O)Nc2ccccn2)c1` [Example E280], the Ki on ROCK2 (ROCK2, Table 16) worked out at 12.5 nM; at ROCK1 (ROCK1, Table 16), 15 nM; on JAK2 (Table 16) it was 1400 nM; at JAK3 (Table 16), 1060 nM.

Take `O=C(Nc1ccc2cnccc2c1)[C@@H]1C[C@H]1c1ccc(F)c(S(=O)(=O)Nc2ccccc2)c1` [Example E281]: the Ki at ROCK2 (ROCK2, Table 16) stood at 240 nM; on ROCK1 (ROCK1, Table 16) it was 150 nM; on JAK2 (Table 16), 3000 nM; at JAK3 (Table 16), 7500 nM.

Turning to `O=C(Nc1ccc2cnccc2c1)[C@@H]1C[C@H]1c1ccc(F)c(S(=O)(=O)Nc2ccccn2)c1` [drawing 673], the Ki at ROCK2 (ROCK2, Table 17) was 12.5 nM; on ROCK1 (ROCK1, Table 17), 15 nM; on JAK2 (Table 17), 1400 nM; on JAK3 (Table 17), 1060 nM.

With `O=C(Nc1ccc2cnccc2c1)[C@@H]1C[C@H]1c1ccc(F)c(S(=O)(=O)Nc2ccccc2)c1` [drawing 674], the Ki on ROCK2 (ROCK2, Table 17) was determined as 240 nM; at ROCK1 (ROCK1, Table 17), 150 nM; on JAK2 (Table 17), 3000 nM; at JAK3 (Table 17) it was 7500 nM.

For “(1R,2R)—N-(fluoroisoquinolin-6-yl)-2-(4-(pyridinylmethyl)phenyl)cyclopropane-1-carboxamide”, in assay [2], the “changes (reductions) in rabbit IOP” value is reported as “reductions”.
